Legend:
[1] = system: rats; test: cardiovascular and respiratory parameters after application to the buccal cavity of anaesthetised rats; format: in vivo, rat
Source text: (§1) In separate experiments, the effects of bethanechol (saturated solution, see above) were compared with those of physostigmine (1% solution in saline) on cardiovascular and respiratory parameters when applied to the buccal cavity of rats. Anaesthesia was induced in animals with urethane (1.75 g/kg given i.p.). Each animal was artificially ventilated via a tracheal cannula that was connected to a Fleisch (size 00) pneumotachograph and a pressure transducer (pressure range ±2 cm H2O). […] The left carotid artery was cannulated for recording blood pressure and heart rate, and the left jugular vein cannulated for drug administration. For topical administration, after 15-30 minutes a Parafilm ball was inserted into the back of the oral cavity to prevent the loss of solution into the oesophagus and airways. At T−10 minutes a cotton wool ball was inserted into the oral cavity and 10 minutes later it was removed and excess saliva wiped away. At T=O minutes physostigmine (1%, 10 microliters each on left and right sides) or bethanechol (10 microliters each on left and right sides) were instilled using a pipette. At T=10 minutes, another cotton wool ball was inserted into the oral cavity, 10 min later, it was removed and the excess saliva wiped away. The effects on baseline cardiovascular and respiratory parameters were recorded over 90 minutes. Physostigmine produced changes in all measured parameters, the mean maximum effects seen during the observation period were for pulmonary inflation pressure 44% increase, mean arterial pressure 17% decrease and heart rate 9.3% decrease (all n=2). In contrast, bethanechol produced minimal (and not significant) effects on any of these parameters, the mean maximum changes being 0% change, 3% decrease and 1% decrease for pulmonary inflation pressure, mean arterial pressure and heart rate respectively (n=3).

[2] = system: patients with xerostomia; test: clinical study in patients with xerostomia, buccal solution versus placebo; format: in vivo, human; settings: approximately 0.5 ml solution retained against the buccal mucosa for 1 to 2 minutes and then swallowed, crossover versus placebo
Description: A cohort of approximately 20 patients with xerostomia is randomised to receive either placebo or bethanechol formulation or vice versa with at least 3 days washout between the treatment segments. Each treatment is given as a small volume (approximately 0.5 ml) solution to be retained against the buccal mucosa for 1 to 2 minutes and then swallowed. Clinical investigations include vital signs, haematology/chemistry and appearance of the buccal mucosa. Efficacy measurements include salivary flow and composition of major and minor glands using standard techniques (see e.g. Ferguson 1999, Archives of Oral Biol., 44:S11-S14; Boros et al., Archives of Oral Biol., 44:S59-S62) and the assessment of subjective oral dryness/comfort using validated measures (see e.g. Chainani-Wu et al., 2006, Spec. Care Dentist 26(4):164-170).

[3] = system: rats; test: cardiovascular and respiratory effects after intravenous administration in rats; format: in vivo, rat; settings: n=3
Source text: as §1
For an additional comparison, the effects of bethanechol (prepared in saline, dosing volume 0.1 ml) over a dose range of 0.3 micrograms/kg to 300 micrograms/kg administered intravenously were studied in rats. Doses were administered in ascending order to each animal (n=3) and cardiovascular and respiratory effects monitored over 5 minutes or until the recorded parameter had returned to baseline (whichever was the later). […] The effects observed with bethanechol at 300 micrograms/kg were mean arterial pressure 72% decrease, heart rate 69% decrease and pulmonary inflation pressure 30% increase.

[4] = system: male Sprague-Dawley rats; test: efficacy study: saliva production after topical instillation into the oral cavity of anaesthetised rats; format: in vivo, rat; settings: saturated solution
Description: In the experiments outlined below, bethanechol chloride for buccal administration was prepared as a saturated solution in a solvent mixture comprising PEG 400, glycerol, ethanol and sodium phosphate buffer. Specific solvent amounts were 30% PEG 400, 30% glycerol, 20% ethanol with 20% phosphate buffer (formed by mixing 50 ml of 0.1M sodium phosphate monobasic (monohydrate) with sufficient 0.1M sodium phosphate dibasic (heptahydrate) until a pH of 5.5 was achieved). Bethanechol chloride was present at up to 33%.
In order to prepare a saturated solution of bethanechol chloride the following method was used. A magnetic flea was placed into a 20 ml scintillation vial and the weight of both was recorded. Exactly 0.8 g of the pH 5.5 buffer solution was placed into the container. […] Once the saturated solution (containing un-dissolved bethanechol) had been achieved, the vial was placed onto a balance and the total weight recorded. […] The amounts of ethanol, glycerol and PEG 400 were calculated to make a solution containing 30% PEG 400, 30% glycerol, 20% ethanol and 20% buffer and bethanechol. […]
Saliva production data were analysed by repeated measures two-way ANOVA followed by Bonferronis post tests (GraphPad Prism version 5.0, GraphPad Software, San Diego, Calif., USA). […]

[5] = buccal, 10 microliters each on left and right sides, recorded over 90 minutes, physostigmine 1% (n=2), bethanechol saturated solution (n=3)

In the case of CNC(=O)Oc1ccc2c(c1)[C@]1(C)CCN(C)[C@@H]1N2C [physostigmine], the “heart rate, mean maximum effect (decrease)” value [1, 5] is reported as 9.3%, the “mean arterial pressure, mean maximum effect (decrease)” value [1, 5] is reported as 17% and the “pulmonary inflation pressure, mean maximum effect (increase)” value [1, 5] is reported as 44%.

With CC(C[N+](C)(C)C)OC(N)=O (stereo not shown) [bethanechol, Bethanechol chloride] the salivary flows [2] was “increase salivary flows”, the “subjective oral dryness/comfort scores” value [2] was “improve subjective oral dryness/comfort scores” and the heart rate decrease ([3]; 0.3 micrograms/kg, in saline) was 6%. The “mean arterial pressure decrease” value ([3]; 0.3 micrograms/kg, in saline) was 31%, the heart rate decrease ([3]; 300 micrograms/kg, in saline) was 69% and the “mean arterial pressure decrease” value ([3]; 300 micrograms/kg, in saline) was 72%. The “pulmonary inflation pressure increase” value ([3]; 300 micrograms/kg, in saline) was 30%, the “dose at which increases in pulmonary inflation pressure were seen” value ([3]; ascending doses 0.3 to 300 micrograms/kg) was ≥ 3 micrograms/kg and the salivary output ([4]; applied topically, for up to 70 minutes) was “sustained and significant increase”. The “increase of total saliva production above vehicle effect” value ([4]; 10 microliters on each side of the mouth, 70 minute collection period, P less than 0.01, n=4) was 72%, the “heart rate, mean maximum effect (decrease)” value ([1]; rat, in vivo) was 1% and the “mean arterial pressure, mean maximum effect (decrease)” value ([1]; rat, in vivo) was 3%. The “pulmonary inflation pressure, mean maximum effect (increase)” value ([1]; rat, in vivo) was 0%.
